Data: publication PMC2365101, “Anti-Inflammatory Activity of (Polyphenolic)-Sulfonates and Their Sodium Salts in Rodents” (Metal-Based Drugs, 1998)

Columns and labels:
[1] = biological target: J774-A1 macrophage elastase; assay: Elastase activity in J774-A1 macrophages; assay type: biochemical, mouse
[2] = test system: CF1 male mice, carrageenan induced edema; assay: Anti-inflammatory screen in mice (carrageenan induced foot edema); assay type: in vivo; settings: for Percent of Control (induced edema): CF1 male mice, N=6
Excerpt: Few reports in the literature indicate interaction at these receptor sites other than by peptides or antibodies. […] Blocking these receptors is desirable because the entire inflammation cascade of events is triggered by the early release of TNFa and IL-1. […] Radioisotopes were obtained from New England Nuclear [Dupont, Boston, MA] and substrates and co- factors were obtained from Sigma Chemical Co. [St. Louis, MO]. […] Cell lines were obtained from American Type Culture Collection [Rockville, MD]. In Vivo Tests Anti-inflammatory screen in mice: Male CF male mice weighing 28-32g obtained from Jackson Lab. […] Evaluation of the induced edema was made by injecting 2% carrageenan in 0.9% saline into the plantar region of the foot. The opposite foot injected with 0.9% isotonic saline was used as a base line. […] Salmonella abortus equi [Lot # 69F4003] […] Drugs from 2 to 16 mg/kg, I.P. were administered 2 hr prior and 2 hr post-injection of the LPS and then subsequently for every 24 hr for the length ofthe animals' lives. Deaths were recorded every 12 hr and continued for 96 hr. […] In vitro TNFa andIL-1 Measurements and Cellular Regulation IC-21 mouse macrophages were maintained in RPMI-1640 + 10% FCS + P/S. After the cells had grown to confluency, E. coli LPS at 10 Ixg/ml was added to the medium. Agents were incubated at 12.5 to 100 µM final concentration for 18 hr. The medium (100 btl) was collected for TNFCt determinations. Interleukin-1 [IL-1] release was determined using P388D1 cells which were maintained in RPMI-1640 + 10% FCS + P/S. The L929 bioassay was used to quantitate the TNF and the IL-1 levels. The L929 mouse fibroblasts were grown in DMEM + 10% FCS + P/S to confluency in 96 well plates and incubated with 100 tl ofmedium from […] or P388D cells after 18 hr. The cells were stained with 0.2% crystal violet in 20% MeOH and read at 580 nm using a Molecular Devices scanner (SOFT-max program). High Affinity Binding to Receptors on L929-106 Cells Two laCi of 125I-TNFct (human recombinant, 30 mCi/tg New England Nuclear) or 125I-IL-1 (70-120[.t Ci/lxg,New England Nuclear) was added to confluency L929 cells for 90 min or 5 hr, respectively with 25, 50 and 100 tM of the test compounds 12]. The cells were washed repeatedly with isotonic saline, pH.7.2 and aliquots counted. Prostaglandin cylcooxygenase activity Mouse J774AI macrophages maintained in Dulbecco's modified Eagle's medium + 15% FCS + P/S. Cells (5 x 106) were incubated with agents (5 to 100 ].tM final concentration) and 3H-arachidonic acid (100 Ci/mol) for 60 min at 37C in a CO2 incubator. The reaction was terminated with 2N HCI, the mixture extracted 2 X with ether, and the organic layer evaporated.

[3] = test system: IL-8 high affinity receptor on chinese hamster ovarian carcinoma K-1 cells; assay: 125I-IL-8 high affinity binding to chinese hamster ovarian carcinoma K-1 cells; settings: for 125I-IL-8 binding, Percent of Control: N=6
[4] = test system: J774 A1 mouse macrophages adhesion to L929 fibroblasts; assay: Adhesion of J-774 A1 mouse macrophages to confluent L929 fibroblasts; assay type: cell-based; settings: for Adhesion, Percent of Control: N=6

| Compound | IC50 Elastase J774-A1 ([1]; 120 min) | Percent of Control (induced edema) ([2]; 16 mg/Kg X 2, I.P.) | 125I-IL-8 binding, Percent of Control ([3]; 50 μM, 5 Hours) | 125I-IL-8 binding, Percent of Control ([3]; 50 μM, 24 Hours) | 125I-IL-8 binding, Percent of Control ([3]; 100 μM, 24 Hours) | Adhesion, Percent of Control ([4]; 5 μM, 2 Hours) | Adhesion, Percent of Control ([4]; 5 μM, 5 Hours) | Adhesion, Percent of Control ([4]; 5 μM, 90 min) | Adhesion, Percent of Control ([4]; 12.5 μM, 2 Hours) | Adhesion, Percent of Control ([4]; 12.5 μM, 5 Hours) | Adhesion, Percent of Control ([4]; 12.5 μM, 90 min) | Adhesion, Percent of Control ([4]; 25 μM, 2 Hours) | Adhesion, Percent of Control ([4]; 25 μM, 5 Hours) | Adhesion, Percent of Control ([4]; 25 μM, 90 min) | Adhesion, Percent of Control ([4]; 50 μM, 2 Hours) | Adhesion, Percent of Control ([4]; 50 μM, 5 Hours) | Adhesion, Percent of Control ([4]; 50 μM, 90 min) | reduction of IL-8 high affinity binding ([3]; 50 μM, 5 hr) | reduction of IL-8 high affinity binding ([3]; 24 hr) | further results |
| --- | --- | --- | --- | --- | --- | --- | --- | --- | --- | --- | --- | --- | --- | --- | --- | --- | --- | --- | --- | --- |
| COc1c2cc(S(=O)(=O)[O-])cc1Cc1cc(S(=O)(=O)[O-])cc(c1OC)Cc1cc(S(=O)(=O)[O-])cc(c1OC)Cc1cc(S(=O)(=O)[O-])cc(c1OC)Cc1cc(S(=O)(=O)[O-])cc(c1OC)Cc1cc(S(=O)(=O)[O-])cc(c1OC)C2.[Na+].[Na+].[Na+].[Na+].[Na+].[Na+] [Compound 6] | Increased | 48+3% of Control | 54 + 5% of Control | 65 + 7% of Control | 55 + 4% of Control | 123 + 6% of Control | 88 + 5% of Control | 137 + 6% of Control | 77 + 6% of Control | 109 + 6% of Control | 133 + 5% of Control | 118 + 7% of Control | 131 + 6% of Control | 128 + 7% of Control | 122 + 6% of Control | 119 + 5% of Control | 103 + 7% of Control | – | – | reduction of edema ([2]; 16 mg/kg X 2): greater than 40%; reduction of IL-8 high affinity binding ([3]; at 5 hr and 24 hr): ~45% |
| CC(=O)Oc1c2cc(S(=O)(=O)[O-])cc1Cc1cc(S(=O)(=O)[O-])cc(c1OC(C)=O)Cc1cc(S(=O)(=O)[O-])cc(c1OC(C)=O)Cc1cc(S(=O)(=O)[O-])cc(c1OC(C)=O)Cc1cc(S(=O)(=O)[O-])cc(c1OC(C)=O)Cc1cc(S(=O)(=O)[O-])cc(c1OC(C)=O)Cc1cc(S(=O)(=O)[O-])cc(c1OC(C)=O)Cc1cc(S(=O)(=O)[O-])cc(c1OC(C)=O)C2.[Na+].[Na+].[Na+].[Na+].[Na+].[Na+].[Na+].[Na+] [Compound 8] | – | 38+3% of Control | 79 + 4% of Control | 58 + 7% of Control | 51 + 6% of Control | 73 + 5% of Control | 107 + 5% of Control | 136 + 5% of Control | 61 + 6% of Control | 106 + 6% of Control | 135 + 7% of Control | 91 + 5% of Control | 125 + 7% of Control | 183 + 7% of Control | 92 + 6% of Control | 131 + 7% of Control | 94 + 6% of Control | 21-23% | greater than 40% | IC50 ([1]; 60 min): 10 to 30 µM; IC50 ([1]; 60 min, listed as #8): 24.5 µM; IC50 ([1]; 120 min): 350 µM; Percent of Control (induced edema) ([2]; 8 mg/Kg X 2, I.P.): 70 + 6% of Control |
| Pentosan sulfate [Pentosan polysulfate, reference compound] | Increased | 49+4% of Control | 79 + 6% of Control | 51 + 6% of Control | 47 + 8% of Control | 75+7% of Control | 103+5% of Control | 329 + 12% of Control | 53 + 6% of Control | 108+7% of Control | 363 + 16% of Control | 66+ 5% of Control | 169+6% of Control | 260 + 9% of Control | 110+6% of Control | 187 + 7% of Control | 176 +6% of Control | 21-23% | greater than 40% | reduction of J774A1 macrophage adhesion ([4]; 12.5 μM, 2 hr): 47% |
